Earlier results in patent US12358983B2, “Combination of anti CD19 antibody with a BCL-2 inhibitor and uses thereof” (Incyte Corporation, priority 2016, dated 2025).

How the values were obtained:
[1] = test system: primary cells from patients with B-cell malignancies; details: in vitro studies; cited from earlier work
[2] = mouse, in vivo; cited from earlier work
[3] = test system: lymphoma and other blood cancers; details: in vivo; cited from earlier work

**Q.** Which “Sensitivity of primary cells (in words)” value [1] does the source give for CN(C)CC[C@H](CSc1ccccc1)Nc1ccc(S(=O)(=O)NC(=O)c2ccc(N3CCN(Cc4ccccc4-c4ccc(Cl)cc4)CC3)cc2)cc1[N+](=O)[O-] [ABT-737] here?
**A.** sensitive

**Q.** What about the “Effect in animal models (in words)” value [2] of the same compound?
**A.** improves survival, causes tumor regression and cures a high percentage of mice

**Q.** And the “Efficacy in patient xenografts (in words)” value [3]?
**A.** showed efficacy
